Assay results published in patent US8399378B2, “Use of neonicotinoids in pest control” (Syngenta Crop Protection LLC, priority 1998, dated 2013).

Tests used:
Format in all cases: in vivo
[1] = tested on: Aphis gossypii; assay: Cotton seedling spray test, action against Aphis gossypii; conditions: 20° C, 3 and 6 days; for control (percentage reduction in population, % action): spray 400 ppm; for control level: plot (b) conventional cotton seedlings, 400 ppm compound, then 400 ppm δ-endotoxin CryIIIa
Description: (§1) Cotton seedlings on a plot (a) expressing the δ-endotoxin CryIIIa on a plot (a) and conventional cotton seedlings on a plot (b) are infected with Aphis gossypi and subsequently sprayed with a spray mixture comprising 400 ppm thiamethoxam. Immediately afterwards, plot (b) is treated with an emulsion spray mixture comprising 400 ppm of the δ-endotoxin CryIIIa. The seedlings of plot (a) and (b) are then incubated at 20° C. The test is evaluated after 3 and 6 days.
(§2) The percentage reduction in population (% action) is determined by comparing the number of dead pests on the plants of plot (a) with that on the plants of plot (b).
(§3) Cotton seedlings expressing the δ-endotoxin CryIA(c) on a plot (a) and conventional cotton seedlings on a plot (b) are infected with Aphis gossypii and subsequently sprayed with a spray mixture comprising 400 ppm thiamethoxam. Immediately afterwards, plot (b) is treated with an emulsion spray mixture comprising 400 ppm of the δ-endotoxin CryIIIa. The seedlings of plot (a) and (b) are then incubated at 20° C. The test is evaluated after 3 and 6 days.

[2] = tested on: Spodoptera littoralis; assay: Spray test on young cotton plants, action against Spodoptera littoralis larvae
Excerpt: (§4) Young transgenic cotton plants which express the δ-endotoxin CryIIIA are sprayed with an aqueous emulsion spray mixture comprising 100, 50, 10, 5, 1 ppm of imidacloprid respectively. After the spray coating has dried on, the cotton plants are populated with 10 adult Anthonomus grandis, 10 Spodoptera littoralis larvae or 10 Heliothis virescens larvae respectively and introduced into a plastic container. Evaluation takes place 3 to 10 days later.
as §4, with “thiamethoxam” for “imidacloprid”
as §4, with “Ti-435” for “imidacloprid”
as §4, with “CryIa(c)” for “CryIIIA”, “Ti-435” for “imidacloprid”
as §4, with “CryIa(c)” for “CryIIIA”, “thiamethoxam” for “imidacloprid”
as §4, with “CryIa(c)” for “CryIIIA”

[3] = tested on: Heliothis virescens; assay: Spray test on young cotton plants, action against Heliothis virescens larvae; conditions: spray 100, 50, 10, 5, 1 ppm, evaluation 3 to 10 days
Excerpt: as §4
as §4, with “thiamethoxam” for “imidacloprid”
as §4, with “Ti-435” for “imidacloprid”, “later. […]” for “later.”

[4] = tested on: Nilaparvata lugens; assay: Rice plant spray test, action against Nilaparvata lugens; conditions: 20° C, 21 days; for control (percentage reduction in population, % action): infected, then spray 400 ppm; for control level: plot (b) conventional rice plants, 400 ppm compound
Description: as §1, with “Rice plants” for “Cotton seedlings”, “CryIA(b)” for “CryIIIa on a plot (a)”, “rice plants” for “cotton seedlings”, “Nilaparvata lugens,” for “Aphis gossypi and”, “CryIA(b).” for “CryIIIa.”, “21” for “3 and 6”
as §2
as §3, with “Rice plants on a plot (a)” for “Cotton seedlings”, “CryIA(c)” for “CryIA(c) on a plot (a)”, “rice plants” for “cotton seedlings”, “Nilaparvata lugens,” for “Aphis gossypii and”, “CryIA(c).” for “CryIIIa.”, “21” for “3 and 6”

[5] = tested on: Heliothis virescens; assay: Spray test on young cotton plants, action against Heliothis virescens larvae; conditions: non-transgenic cotton treated with compound and conventional CryIIIA-toxin, each 100, 50, 10, 5, 1 ppm
[6] = tested on: Anthonomus grandis; assay: Spray test on young cotton plants, action against Anthonomus grandis adults; conditions: spray 100, 50, 10, 5, 1 ppm, evaluation 3 to 10 days
Excerpt: as §4
as §4, with “thiamethoxam” for “imidacloprid”
as §4, with “Ti-435” for “imidacloprid”
as §4, with “CryIa(c)” for “CryIIIA”, “Ti-435” for “imidacloprid”
as §4, with “CryIa(c)” for “CryIIIA”, “thiamethoxam” for “imidacloprid”
as §4, with “CryIa(c)” for “CryIIIA”

[7] = tested on: Spodoptera littoralis; assay: Spray test on young cotton plants, action against Spodoptera littoralis larvae; remark: listed apart in the source
[8] = tested on: Anthonomus grandis; assay: Spray test on young cotton plants, action against Anthonomus grandis adults; conditions: non-transgenic cotton treated with compound and conventional CryIIIA-toxin, each 100, 50, 10, 5, 1 ppm
[9] = transgenic cotton expressing δ-endotoxin CryIIIA, compared with non-transgenic plant
[10] = transgenic cotton expressing δ-endotoxin CryIa(c)
[11] = comparison arm for CryIIIA cotton
[12] = comparison arm for CryIa(c) cotton

In the case of CN1COCN(Cc2cnc(Cl)s2)/C1=N\[N+](=O)[O-] [thiamethoxam, 5-(2-Chlorthiazol-5-ylmethyl)-3-methyl-4-nitroimino-perhydro-1,3,5-oxadiazin], the “control (percentage reduction in population, % action)” value ([1]; plot (a) cotton seedlings expressing δ-endotoxin CryIIIa) was “Improved control”, the “control (percentage reduction in population, % action)” value ([1]; plot (a) cotton seedlings expressing δ-endotoxin CryIa(c)) was “Improved control” and the control level [1] was at most 60%. For the same compound, the control level ([1]; comparison arm for CryIA(c) cotton) was at most 60%, the “control of the tested insects (percentage reduction in population or feeding damage, % action)” value ([2]; non-transgenic cotton treated with compound and conventional CryIIIA-toxin, each 100, 50, 10, 5, 1 ppm, comparison arm for CryIa(c) cotton) was “insufficient” and the “control of the tested insects (percentage reduction in population or feeding damage, % action)” value ([2]; transgenic cotton expressing δ-endotoxin CryIa(c), spray 100, 50, 10, 5, 1 ppm, evaluation 3 to 10 days) was “superior”. The “control of the tested insects (percentage reduction in population or feeding damage, % action)” value [3, 9] was “superior”, the “control of the tested insects (percentage reduction in population or feeding damage, % action)” value [3, 10] was “superior” and the “control (percentage reduction in population, % action)” value ([4]; plot (a) rice plants expressing δ-endotoxin CryIA(b)) was “Improved control”. The “control (percentage reduction in population, % action)” value ([4]; plot (a) rice plants expressing δ-endotoxin CryIA(c)) was “Improved control”, the control level ([4]; then 400 ppm δ-endotoxin CryIA(b)) was at most 60% and the control level ([4]; then 400 ppm δ-endotoxin CryIA(c)) was at most 0%. The “control of the tested insects (percentage reduction in population or feeding damage, % action)” value [5, 11] was “insufficient”, the “control of the tested insects (percentage reduction in population or feeding damage, % action)” value [5, 12] was “insufficient” and the “control of the tested insects (percentage reduction in population or feeding damage, % action)” value [6, 9] was “superior”. The “control of the tested insects (percentage reduction in population or feeding damage, % action)” value [6, 10] was “superior”, the “control of the tested insects (percentage reduction in population or feeding damage, % action)” value ([7]; non-transgenic cotton treated with compound and conventional CryIIIA-toxin, each 100, 50, 10, 5, 1 ppm, comparison arm for CryIIIA cotton) was “insufficient” and the “control of the tested insects (percentage reduction in population or feeding damage, % action)” value ([7]; transgenic cotton expressing δ-endotoxin CryIIIA, spray 100, 50, 10, 5, 1 ppm, evaluation 3 to 10 days, compared with non-transgenic plant) was “superior”. The “control of the tested insects (percentage reduction in population or feeding damage, % action)” value [8, 11] was “insufficient” and the “control of the tested insects (percentage reduction in population or feeding damage, % action)” value [8, 12] was “insufficient”.
